Converted amounts (≈) assume the structure as drawn.
Tests used:
[1] = biological target: T1, CSF1R (Homo sapiens, UniProt P07333); assay: CSF1R enzymatic inhibition, TR-FRET-based LANCE Ultra assay; format: biochemical; conditions: single 8-point titrations, ATP concentration 25 µM, read-out: Enz. IC50
T1 sequence (P07333 539-972 limits assumed): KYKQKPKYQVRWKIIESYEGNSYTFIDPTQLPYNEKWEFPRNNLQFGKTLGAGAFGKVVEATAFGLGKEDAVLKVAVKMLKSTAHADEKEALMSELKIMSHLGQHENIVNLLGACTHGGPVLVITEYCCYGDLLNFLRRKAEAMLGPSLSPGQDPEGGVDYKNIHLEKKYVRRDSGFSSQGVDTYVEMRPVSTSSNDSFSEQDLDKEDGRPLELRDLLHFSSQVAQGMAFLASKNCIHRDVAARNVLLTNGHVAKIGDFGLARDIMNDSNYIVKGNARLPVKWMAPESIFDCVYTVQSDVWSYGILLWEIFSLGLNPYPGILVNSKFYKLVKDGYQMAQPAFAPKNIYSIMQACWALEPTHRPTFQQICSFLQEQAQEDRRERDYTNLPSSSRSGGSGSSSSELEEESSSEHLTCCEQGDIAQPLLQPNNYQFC

[2] = test system: IL-3 dependent Ba/F3 cell line (CSF1R independent); assay: Control assay for cellular toxicity, Ba/F3 cells dependent on IL-3; format: cell-based; conditions: Mus musculus, BaF3; Ba/F3 cells dependent on IL-3, control for cellular toxicity
[3] = test system: CSF1R Ba/F3 cells; assay: Cell viability assay, Ba/F3 cells engineered to be dependent on CSF1R; format: cell-based; conditions: duplicate measurements; for IC50: Mus musculus, BaF3, Ba/F3 cells dependent on CSF1R; for CSF1R Ba/F3 IC50: Ba/F3 cells dependent on CSF1R
[4] = Kinetic solubility, spectrophotometric; format: physicochemical; conditions: aqueous buffer, kinetic from dmso stock, spectrophotometrically at pH 7.4 in HEPES buffer

SMILES | IC50 [1] | IC50 [2] | IC50 [3] | solubility kinetic [4] | CSF1R Ba/F3 IC50 [3]
Cc1ccc(-n2cc(-c3cc4c(N(C)Cc5cccc(C)c5)ncnc4[nH]3)nn2)cc1 [Compound 20a, N-Methyl-N-(3-methylbenzyl)-6-(1-(p-tolyl)-1H-1,2,3-triazol-4-yl)-7H-pyrrolo[2,3-d]pyrimidin-4-amine] | 28.2 nM | > 10000 nM | > 10000 nM | 3 µM (≈ 1.23 µg/mL) | 
Cc1cccc(CN(C)c2ncnc3[nH]c(-c4cn(C5CCOCC5)nn4)cc23)c1 [Compound 29a, N-Methyl-N-(3-methylbenzyl)-6-(1-(tetrahydro-2H-pyran-4-yl)-1H-1,2,3-triazol-4-yl)-7H-pyrrolo[2,3-d]pyrimidin-4-amine] | < 1 nM | > 10000 nM | > 10000 nM | 20 µM (≈ 8.07 µg/mL) | 
CN(CC1CCOCC1)c1ncnc2[nH]c(-c3cn(CC4CCOCC4)nn3)cc12 [Compound 31b, N-Methyl-N-((tetrahydro-2H-pyran-4-yl)methyl)-6-(1-((tetrahydro-2H-pyran-4-yl)methyl)-1H-1,2,3-triazol-4-yl)-7H-pyrrolo[2,3-d]pyrimidin-4-amine] | < 1 nM | > 10000 nM | 1000 ± 200 nM | 45 µM (≈ 18.5 µg/mL) | 
Cc1cccc(CN(C)c2ncnc3[nH]c(-c4cn(-c5ccc(F)cc5)nn4)cc23)c1 [Compound 19a, 6-(1-(4-Fluorophenyl)-1H-1,2,3-triazol-4-yl)-N-methyl-N-(3-methylbenzyl)-7H-pyrrolo[2,3-d]pyrimidin-4-amine] | 7.7 nM | > 10000 nM | > 10000 nM | 0.4 µM (≈ 0.165 µg/mL) | 
Cc1ccc(-n2cc(-c3cc4c(N(C)CC5CCOCC5)ncnc4[nH]3)nn2)cc1 [Compound 20b, N-Methyl-N-((tetrahydro-2H-pyran-4-yl)methyl)-6-(1-(p-tolyl)-1H-1,2,3-triazol-4-yl)-7H-pyrrolo[2,3-d]pyrimidin-4-amine] | 9.1 nM | > 10000 nM | 3200 ± 900 nM | 0.7 µM (≈ 0.282 µg/mL) | 
Cc1cccc(CN(C)c2ncnc3[nH]c(-c4cn(-c5cccnc5)nn4)cc23)c1 [Compound 22a, N-Methyl-N-(3-methylbenzyl)-6-(1-(pyridin-3-yl)-1H-1,2,3-triazol-4-yl)-7H-pyrrolo[2,3-d]pyrimidin-4-amine] | 2.3 nM | > 10000 nM | 1200 ± 200 nM | 11 µM (≈ 4.36 µg/mL) | 
CN(CC1CCOCC1)c1ncnc2[nH]c(-c3cn(CCCO)nn3)cc12 [Compound 28b, 3-(4-(4-(Methyl((tetrahydro-2H-pyran-4-yl)methyl)amino)-7H-pyrrolo[2,3-d]pyrimidin-6-yl)-1H-1,2,3-triazol-1-yl)propan-1-ol] | 1.1 nM | > 10000 nM | > 10000 nM | 495 µM (≈ 184 µg/mL) | inactive
CN(CC1CCOCC1)c1ncnc2[nH]c(-c3cn(-c4cccnc4)nn3)cc12 [Compound 22b, N-Methyl-6-(1-(pyridin-3-yl)-1H-1,2,3-triazol-4-yl)-N-((tetrahydro-2H-pyran-4-yl)methyl)-7H-pyrrolo[2,3-d]pyrimidin-4-amine] | 2.1 nM | > 10000 nM | 1600 ± 300 nM | 37 µM (≈ 14.4 µg/mL) | 
CN(CC1CCOCC1)c1ncnc2[nH]c(-c3cn(Cc4ccccc4)nn3)cc12 [Compound 23b, 6-(1-Benzyl-1H-1,2,3-triazol-4-yl)-N-methyl-N-((tetrahydro-2H-pyran-4-yl)methyl)-7H-pyrrolo[2,3-d]pyrimidin-4-amine] | < 1 nM | > 10000 nM | 3700 ± 1900 nM | 4.9 µM (≈ 1.98 µg/mL) | 
Cc1cccc(CN(C)c2ncnc3[nH]c(-c4cn(CC5CCOCC5)nn4)cc23)c1 [Compound 31a, N-Methyl-N-(3-methylbenzyl)-6-(1-((tetrahydro-2H-pyran-4-yl)methyl)-1H-1,2,3-triazol-4-yl)-7H-pyrrolo[2,3-d]pyrimidin-4-amine] | < 1 nM | > 10000 nM | 2700 ± 1000 nM | 2.5 µM (≈ 1.04 µg/mL) | 
CN(CC1CCOCC1)c1ncnc2[nH]c(-c3cn(-c4ccccc4)nn3)cc12 [Compound 18b, N-Methyl-6-(1-phenyl-1H-1,2,3-triazol-4-yl)-N-((tetrahydro-2H-pyran-4-yl)methyl)-7H-pyrrolo[2,3-d]pyrimidin-4-amine] |  | > 10000 nM | > 10000 nM | 14 µM (≈ 5.45 µg/mL) | 
Cc1cccc(CN(C)c2ncnc3[nH]c(-c4cn(CCCO)nn4)cc23)c1 [Compound 28a, 3-(4-(4-(Methyl(3-methylbenzyl)amino)-7H-pyrrolo[2,3-d]pyrimidin-6-yl)-1H-1,2,3-triazol-1-yl)propan-1-ol] | < 1 nM | > 10000 nM | 1000 ± 100 nM | 5.5 µM (≈ 2.08 µg/mL) | 
CN(CC1CCOCC1)c1ncnc2[nH]c(-c3cn(Cc4ccc(F)cc4)nn3)cc12 [Compound 24b, 6-(1-(4-Fluorobenzyl)-1H-1,2,3-triazol-4-yl)-N-methyl-N-((tetrahydro-2H-pyran-4-yl)methyl)-7H-pyrrolo[2,3-d]pyrimidin-4-amine] | 1.5 nM | > 10000 nM | 4600 ± 2700 nM | 1.7 µM (≈ 0.717 µg/mL) | 
Cc1cccc(CN(C)c2ncnc3[nH]c(-c4cn(-c5ccccc5)nn4)cc23)c1 [Compound 18a, N-Methyl-N-(3-methylbenzyl)-6-(1-phenyl-1H-1,2,3-triazol-4-yl)-7H-pyrrolo[2,3-d]pyrimidin-4-amine] | 1.9 nM | > 10000 nM | > 10000 nM | 0.3 µM (≈ 0.119 µg/mL) | 
CN(CC1CCOCC1)c1ncnc2[nH]c(-c3cn(-c4ccc(F)cc4)nn3)cc12 [Compound 19b, 6-(1-(4-Fluorophenyl)-1H-1,2,3-triazol-4-yl)-N-methyl-N-((tetrahydro-2H-pyran-4-yl)methyl)-7H-pyrrolo[2,3-d]pyrimidin-4-amine] | 2.1 nM | > 10000 nM | > 10000 nM | 11 µM (≈ 4.48 µg/mL) | No measurable cell activity
CN1CCC(n2cc(-c3cc4c(N(C)CC5CCOCC5)ncnc4[nH]3)nn2)CC1 [Compound 30b, N-Methyl-6-(1-(1-methylpiperidin-4-yl)-1H-1,2,3-triazol-4-yl)-N-((tetrahydro-2H-pyran-4-yl)methyl)-7H-pyrrolo[2,3-d]pyrimidin-4-amine] | < 1 nM | > 10000 nM | 2400 ± 500 nM | 42 µM (≈ 17.2 µg/mL) | 
Cc1ccc(Cn2cc(-c3cc4c(N(C)Cc5cccc(C)c5)ncnc4[nH]3)nn2)cc1 [Compound 25a, N-Methyl-N-(3-methylbenzyl)-6-(1-(4-methylbenzyl)-1H-1,2,3-triazol-4-yl)-7H-pyrrolo[2,3-d]pyrimidin-4-amine] | 6.3 nM | > 10000 nM | > 10000 nM | 1.1 µM (≈ 0.466 µg/mL) | 
Cc1cccc(CN(C)c2ncnc3[nH]c(-c4cn(Cc5ccccc5)nn4)cc23)c1 [Compound 23a, 6-(1-Benzyl-1H-1,2,3-triazol-4-yl)-N-methyl-N-(3-methylbenzyl)-7H-pyrrolo[2,3-d]pyrimidin-4-amine] | 2 nM | > 10000 nM | > 10000 nM | 0.3 µM (≈ 0.123 µg/mL) | 
Cc1cccc(CN(C)c2ncnc3[nH]c(-c4cn(C5CCN(C)CC5)nn4)cc23)c1 [Compound 30a, N-Methyl-N-(3-methylbenzyl)-6-(1-(1-methylpiperidin-4-yl)-1H-1,2,3-triazol-4-yl)-7H-pyrrolo[2,3-d]pyrimidin-4-amine] | < 1 nM | > 10000 nM | 1100 ± 100 nM | 51 µM (≈ 21.2 µg/mL) | 
